Patent US7112680B2, “Heterocyclic hydrazones for use as anti-cancer agents” (Austria Wirtschaftsservice Gesellschaft MIT Beschrankter …, priority 2000, dated 2006)
Like-named read-outs stand apart in the source and are kept apart here.

Columns and labels:
[1] = test system: HeLa (epitheloid cervix carcinoma); experiment: Inhibition of tumor cell growth, SRB-assay, HeLa; type: cell-based, human
[2] = test system: K562 (chronic myelogenous leukemia); experiment: Inhibition of tumor cell growth, K562; type: cell-based, human; settings: 72 hours
Procedure: (§1) In order to obtain information about the growth-inhibiting action on tumor cells, the inhibition of the growth of the following human tumor cells was determined: Burkitt's lymphoma (CA 46, ATCC No. CRL 1648), CCRF-CEM (acute lymphoblastic leukemia, ATCC No. CCL 119), K562 (chronic myelogenous leukemia, ATTC No. CCL 243), HeLa (epitheloid cervix carcinoma, ATCC No. CCL 2), MEXF 276L (melanoma), HT-29 (colon adenocarcinoma, ATCC No. HTB 38), KB-3-1 (human oral epidermoid carcinoma, CTCC No. CCL 17), KB-HU hydroxyurea-resistant, multidrug-resistant KB-C1 cells (Akiyama et al, Cell. Mol Genet., 11:117–126, 1985). Burkitt's, CCRF-CEM, HeLa and MEXF 276L cells were grown in RPMI 1640, HT-29 cells in McCoy's 5A medium. The KB cell lines were grown in Dulbecco's modified Eagle's medium (4,5 g glucose/l). To the cultures of KB-C1 cells 1 μg of colchicine/ml, and to the hydroxyurea-resistant KB-HU cells 1 mM hydroxyurea was added every other week. The media were supplemented with 10% fetal calf serum (except Burkitt's lymphoma cells with 15%), 2 mM glutamine, 50 units/ml penicillin and 50 μg/ml streptomycin. Inhibition of growth of HeLa, HT-29, KB and MEXF 276L cells was detected by the SRB-assay (Skehan et al, J. Natl Cancer Inst., 82:1107–1112, 1990). 3,000 - 10,000 cells in 200 μl medium were seeded per well into 96-well plates. Dose-response curves for CCRF-CEM and Burkitt's lymphoma cells were effected by an MTT-assay (Mosman, J. Immunol Methods, 65:55–63, 1983) from Boehringer Mannheim, Mannheim, Germany. Approximately 10,000 cells per 100 μl were seeded in 96-well plates. After an initial incubation of four hours, various substance concentrations were added, and the cells were incubated at 37° C. in a water-saturated atmosphere of 95% air and 5% CO2 for 72 hours. The substances were dissolved in dimethylsulfoxide (DMSO). The concentration of DMSO was 0.5%, and this was not toxic to the cells. Subsequently, the samples were fixed, washed, and the absorption was determined by a microplate reader.

[3] = test system: HT-29 (colon adenocarcinoma); experiment: Inhibition of tumor cell growth, SRB-assay, HT-29; type: cell-based, human
Procedure: (§2) The KB cell lines were grown in Dulbecco's modified Eagle's medium (4,5 g glucose/l). To the cultures of KB-C1 cells 1 μg of colchicine/ml, and to the hydroxyurea-resistant KB-HU cells 1 mM hydroxyurea was added every other week. […] 3,000 - 10,000 cells in 200 μl medium were seeded per well into 96-well plates. […] Approximately 10,000 cells per 100 μl were seeded in 96-well plates. […] The substances were dissolved in dimethylsulfoxide (DMSO). […] Subsequently, the samples were fixed, washed, and the absorption was determined by a microplate reader.

MEXF 276L (melanoma) = experiment: Inhibition of tumor cell growth, SRB-assay, MEXF 276L; type: cell-based, human; settings: Table 2, 72 hours
Procedure: as §2

[4] = test system: Burkitt's lymphoma (CA 46, ATCC No. CRL 1648); experiment: Inhibition of tumor cell growth, MTT-assay, Burkitt's lymphoma; type: cell-based, human
Procedure: as §2

[5] = test system: CCRF-CEM (acute lymphoblastic leukemia); experiment: Inhibition of tumor cell growth, MTT-assay, CCRF-CEM; type: cell-based, human; settings: Table 2, 72 hours
[6] = test system: human tumor grafts (cell lines of FIG. 1); experiment: Colony forming assay (two-layer soft agar); type: cell-based; settings: for IC50 / IC90 / Mean IC70: mean values of all cell lines tested in FIG. 1, continuous exposure 3 to 6 days
Procedure: An excellent correlation of drug response in patients and the colony forming assay has been found (Scholz et al, Eur. J. Cancer 25:901–905, 1990). Solid human tumors were grown as grafts in nude mice, removed from the latter, mechanically comminuted and subsequently incubated in an enzyme cocktail consisting of collagenase (1.2–1.8 U/ml), DNAse (375 U/ml) and hyaluronidase (29 U/ml) in RPMI 1640 medium at 37° C. for 30 minutes. The cell mixture was passed through sieves of 200 μm and 50 μm mesh size and washed thereafter twice with PBS (phosphate buffered saline). The percentage of live cells was determined using a Neubauer counting chamber and trypan blue staining.
The colony forming assay was performed according to a two-layer agar technique introduced and modified by Hamburger and Salmon (Hamburger and Salmon, Science, 197:461–463, 1977). The bottom layer consisted of 0.2 ml of Iscoves's Modified Dulbecco's medium with 20% fetal calf serum and 0.75% agar. 8×10^3 to 1.6×10^4 cells were added to the same medium and 0.4% agar and plated in 24-multiwell plates onto the base layer. One day after the plating (with continuous exposure), the substances were added in 0.2 ml medium. Each plate included six controls containing the solvent only, and the treated groups contained 6 concentrations of the substances, each in triplicate. Cultures were incubated at 37° C. and 7% CO2 in a water-saturated atmosphere for 3 to 6 days, depending on the doubling time of the tumor cells. At the time of maximum colony formation with a size of […], counts were performed with an automatic image analysis system. 24 h prior to counting, live colonies were stained with a sterile aqueous solution of 2-(4-iodophenyl)-3-(4-nitrophenyl)-5-phenyltetrazolium chloride (1 mg/ml, 100 μl/well). The results of the tests are given in FIG. 1, and in the following Table 5, respectively. […] Columns pointing towards the right show a slighter than average activity.

[7] = test system: multidrug-resistant KB-C1 cells; experiment: Inhibition of tumor cell growth, SRB-assay, KB-C1; type: cell-based, human; settings: read-out: In vitro-activity against human tumor cell lines, KB-C1
Procedure: as §1

[8] = test system: KB-3-1 (human oral epidermoid carcinoma); experiment: Inhibition of tumor cell growth, SRB-assay, KB-3-1; type: cell-based; settings: read-out: In vitro-activity against human tumor cell lines, KB-3-1
Procedure: as §1

[9] = test system: KB-HU hydroxyurea-resistant cells; experiment: Inhibition of tumor cell growth, SRB-assay, KB-HU; type: cell-based, human; settings: Table 4, 72 hours, read-out: In vitro-activity against human tumor cell lines, KB-HU
Procedure: as §1

[10] = Table 1, 72 hours, read-out: IC50 HeLa (converted)
[11] = Table 1, 72 hours, read-out: IC50 HT-29 (converted)
[12] = Table 2, 72 hours, read-out: IC50 HeLa (converted)
[13] = Table 2, 72 hours, read-out: IC50 Burkitts
[14] = Table 2, 72 hours, read-out: IC50 HT-29 (converted)
[15] = Table 4, 72 hours, read-out: In vitro-activity against human tumor cell lines, HeLa
[16] = Table 4, 72 hours, read-out: In vitro-activity against human tumor cell lines, Burkitts
[17] = Table 4, 72 hours, read-out: In vitro-activity against human tumor cell lines, HT-29

IC50 [1, 12] | IC50 (MEXF 276L (melanoma); read-out: IC50 MEXF276L) | IC50 [4, 13] | IC50 [3, 14] | IC50 [5] | Compound | other results
– | – | – | – | – | Cn1c(NN=C(Cc2ccccc2)c2ccccn2)nc2ccccc21 [Ia-33] | IC50 [1, 10]: 24 nM; IC50 ([2]; Table 1): 120 nM; IC50 [3, 11]: 14100 nM
3530 nM | 4240 nM | 3370 nM | 2230 nM | 2170 nM | CC(=NNc1nc2ccccc2[nH]1)c1nccnc1C [Ib-14] | –
1490 nM | 2000 nM | 1220 nM | 880 nM | 840 nM | CC(=NNc1nc2ccccc2[nH]1)c1cnc(C)cn1 [Ib-16] | –
1610 nM | 2250 nM | 840 nM | 1040 nM | 460 nM | CC(=NNc1nc2ccccc2o1)c1ccc(C)nn1 [Ib-5] | –
340 nM | 1560 nM | 200 nM | 1930 nM | 350 nM | CC(=NNc1nc2ccccc2o1)c1nccc2ccccc12 [Ib-21] | –
890 nM | 1140 nM | 390 nM | 360 nM | 660 nM | CC(=NNc1nc2ccccc2[nH]1)c1cc(C)ncn1 [Ib-9] | –
– | – | – | – | – | CC(=NNc1nc2ccccc2n1C1CC1)c1ccccn1 [Ic-6] | IC50 ([1]; Table 3, 72 hours, read-out: IC50 HeLa (converted)): 400 nM; IC50 ([2]; Table 3): 90 nM; IC50 ([3]; Table 3, 72 hours, read-out: IC50 HT-29 (converted)): 11200 nM
630 nM | 960 nM | 220 nM | 420 nM | 200 nM | CC(=NNc1nc2ccccc2[nH]1)c1ncccn1 [Ib-25] | –
1250 nM | 1960 nM | 1340 nM | 1770 nM | 720 nM | CC(=NNc1nc2ccccc2o1)c1cccnn1 [Ib-3] | –
410 nM | 1300 nM | 140 nM | 230 nM | 340 nM | CC(=NNc1nc2ccccc2o1)c1ccncn1 [Ib-8] | –
1870 nM | 5380 nM | 910 nM | 2150 nM | 1300 nM | CC(=NNc1nc2ccccc2o1)c1nccnc1C [Ib-15] | –
1990 nM | 2360 nM | 1870 nM | 1960 nM | 1300 nM | CC(=NNc1nc2ccccc2[nH]1)c1ccc(C)nn1 [Ib-4] | –
– | – | – | – | – | CC(=NNc1nc2ccccc2n1C)c1cccc(Cl)n1 [Id-5] | IC50 [6]: 3300 nM; IC90 [6]: 9380 nM; Mean IC70 [6]: 5740 nM; IC50 [1, 15]: 190 nM; IC50 ([7]; Table 4, 72 hours): 30 nM; IC50 ([8]; Table 4, 72 hours): 7 nM; IC50 [9]: 20 nM; IC50 [4, 16]: 12 nM; IC50 [3, 17]: 320 nM
– | – | – | – | – | Cn1c(NN=C(c2ccccn2)c2ccccn2)nc2ccccc21 [Ia-37] | IC50 [1, 10]: 90 nM; IC50 ([2]; Table 1): 30 nM; IC50 [3, 11]: 4640 nM
180 nM | 700 nM | 30 nM | 270 nM | 130 nM | CC(=NNc1nc2ccccc2o1)c1ncccn1 [Ib-27] | –
210 nM | 1220 nM | 40 nM | 120 nM | 220 nM | CC(=NNc1nc2ccccc2o1)c1cc(C)ncn1 [Ib-10] | –
– | – | – | – | – | CC(=NNc1nc2ccccc2[nH]1)c1ccncn1 [Ib-6, 1-(4-Pyrimidinyl)-1-ethanone-1-(1H-benzo[d]imidazol-2-yl)-hydrazone] | IC50 ([1]; Homo sapiens, HeLa, Table 2, 72 hours, read-out: IC50 HeLa (converted)): 880 nM; IC50 (MEXF 276L (melanoma); Homo sapiens, MEXF276L): 910 nM; IC50 ([4]; Homo sapiens, CA46, Table 2, 72 hours, read-out: IC50 Burkitts): 560 nM; IC50 ([3]; Homo sapiens, HT-29, Table 2, 72 hours, read-out: IC50 HT-29 (converted)): 570 nM; IC50 ([5]; Homo sapiens, CCRF-CEM): 410 nM
– | – | – | – | – | CC(=NNc1nc2ccccc2n1C)c1cc(Cl)ccn1 [Id-4, 1-(4-Chloro-2-pyridyl)-1-ethanone-1-(1-methyl-1H-benzo[d]imidazol-2-yl)-hydrazone] | IC50 ([6]; Homo sapiens): 301 nM; IC90 ([6]; Homo sapiens): 4290 nM; tumor type selectivity ([6]; colony forming assay, IC70 pattern, FIG. 1): selectivity for colon, breast, ovarian, and uterus tumors; Mean IC70 [6]: 956 nM; IC50 ([1]; Homo sapiens, HeLa, Table 4, 72 hours, read-out: In vitro-activity against human tumor cell lines, HeLa): 170 nM; IC50 ([7]; Homo sapiens, KBC-1, Table 4, 72 hours): 90 nM; IC50 ([8]; Homo sapiens, KB 3-1, Table 4, 72 hours): 71 nM; IC50 ([9]; Homo sapiens): 270 nM; IC50 ([4]; Homo sapiens, CA46, Table 4, 72 hours, read-out: In vitro-activity against human tumor cell lines, Burkitts): 4 nM; IC50 ([3]; Homo sapiens, HT-29, Table 4, 72 hours, read-out: In vitro-activity against human tumor cell lines, HT-29): 520 nM
– | – | – | – | – | CC(=NNc1nc2ccccc2n1C)c1cc(-c2ccccc2)ccn1 [Id-15] | IC50 [6]: 429 nM; IC90 [6]: 5670 nM; Mean IC70 [6]: 1017 nM; IC50 [1, 15]: 40 nM; IC50 ([7]; Table 4, 72 hours): 230 nM; IC50 ([8]; Table 4, 72 hours): 140 nM; IC50 [9]: 120 nM; IC50 [4, 16]: 30 nM; IC50 [3, 17]: 50 nM
4530 nM | > 10000 nM | 5490 nM | 7760 nM | 7040 nM | CC(=NNc1nc2ccccc2o1)c1ccc2ccccc2n1 [Ib-19] | –
370 nM | 1660 nM | 150 nM | 280 nM | 620 nM | CC(=NNc1nc2ccccc2o1)c1cnc(C)cn1 [Ib-17] | –
– | – | – | – | – | CC(=NNc1nc2ccccc2n1C)c1ccc(-c2ccccc2)cn1 [Id-16] | IC50 [6]: 965 nM; IC90 [6]: 7450 nM; Mean IC70 [6]: 2084 nM; IC50 [1, 15]: 180 nM; IC50 ([7]; Table 4, 72 hours): 180 nM; IC50 ([8]; Table 4, 72 hours): 250 nM; IC50 [9]: 190 nM; IC50 [4, 16]: 30 nM; IC50 [3, 17]: 250 nM
1230 nM | 2140 nM | 840 nM | 2060 nM | 980 nM | CC(=NNc1nc2ccccc2[nH]1)c1cccnn1 [Ib-1] | –
